Entries after “also recorded” stand apart in the source; their conditions may differ. Where two headings read alike, the source gives them in different places.
How the values were obtained:
[1] = test system: glycerol kinase (GK) produced by Streptomyces canus A 2408; experiment: Km value of GK for its substrates; format: biochemical
Method: The above mixture (1 ml) is preincubated at 37° C. for 5 minutes and GK solution (50 μl) [diluted with GL-buffer (10 mM phosphate buffer containing 10 mM glycerol, pH 7.5)] is added thereto and incubated at 37° C. for 10 minutes.
One unit of GK is defined as liberating […] of glycero-3-phosphate per minute.
Enzyme activity is calculated by the following equation: [formula]

[2] = test system: Escherichia coli GK (E.Co-GK); conditions: cited from earlier work
[3] = test system: glycerol kinase (GK) produced by Streptomyces canus A 2408; experiment: Specific activity for nucleotide; format: biochemical; conditions: for Relative activity (%): 10 mM ATP replaced by the nucleotide, formed glycero-3-phosphate measured
Method: (ii) specific activity for nucleotide:
In assay method (i) hereinabove, 10 mM ATP is replaced by CTP, ITP, GTP and UTP and measures the formed glycero-3-phosphate.

[4] = test system: glycerol kinase (GK) produced by Streptomyces canus A 2408; experiment: Effect of metal ions and p-chloromercuribenzoate (PCMB); format: biochemical
Source text: Effect of metal ions and p-chloromercuribenzoate (PCMB)

[5] = test system: glycerol kinase (GK) produced by Streptomyces canus A 2408; experiment: Substrate specificity for glycerol, dihydroxyacetone phosphate and D-glyceraldehyde (ADP assay); format: biochemical; conditions: for Relative activity: substrate 0.1 M, 0.05 ml, 37° C. for 10 minutes, ADP assayed at 550 nm
Method: (i) specificity for glycerol, dihydroxyacetone phosphate and D-glyceraldehyde: […]
The reaction mixture (0.95 ml) is preincubated at 37° C. for 3 minutes, and the enzyme solution (dissolved in 10 mM phosphate buffer, pH 7.5, 0.05 ml) is added thereto. Then the mixture is incubated at 37° C. for 10 minutes. The reaction is stopped by boiling for 3 minutes. After cooling to 37° C., the amount of ADP is assayed. ADP is assayed by adding an ADP-assay solution (2.0 ml) comprising the following mixture: […]
The reaction mixture is incubated at 37° C. for 15 minutes. Color formation is measured at 550 nm to calculate the substrate specificity.

[6] = test system: pigeon heart GK (Pig.-GK); conditions: cited from earlier work

Molecule: Nc1ncnc2c1ncn2[C@@H]1O[C@H](COP(=O)(O)OP(=O)(O)OP(=O)(O)O)[C@@H](O)[C@H]1O [ATP]
- Km [1]: 200 µM
- nucleotide specificity (in words) [2]: acts only for ATP
- nucleotide specificity (in words) [3]: especially high specificity
- Relative activity (%) [3]: 100%

Molecule: Nc1ccn([C@@H]2O[C@H](COP(=O)(O)OP(=O)(O)OP(=O)(O)O)[C@@H](O)[C@H]2O)c(=O)n1 [CTP]
- nucleotide specificity (in words) [3]: especially high specificity
- Relative activity (%) [3]: 92%

Molecule: [Ca+2].[Cl-].[Cl-] [CaCl2]
- Effect of metal ion on GK activity (in words) [4]: inhibited
- Relative Activity (%) with 1 mM Mg++ ([4]; reagent 1.0 mM): 54%
- Relative Activity (%) without Mg++ ([4]; reagent 1.0 mM): 0%

Molecule: O=C[C@H](O)CO [D-glyceraldehyde]
- Relative activity [5]: 20%
- Km [1]: 350 µM

Molecule: Nc1nc2c(ncn2[C@@H]2O[C@H](COP(=O)(O)OP(=O)(O)OP(=O)(O)O)[C@@H](O)[C@H]2O)c(=O)[nH]1 [GTP]
- Relative activity (%) [3]: 19%

Molecule: O=c1[nH]cnc2c1ncn2[C@@H]1O[C@H](COP(=O)(O)OP(=O)(O)OP(=O)(O)O)[C@@H](O)[C@H]1O [ITP]
- Relative activity (%) [3]: 47%

Molecule: [Cl-].[Cl-].[Mg+2] [MgCl2]
- Effect of metal ion on GK activity (in words) [4]: activated
- Relative Activity (%) with 1 mM Mg++ ([4]; reagent 1.0 mM): 100%
- Relative Activity (%) without Mg++ ([4]; reagent 1.0 mM): 100%

Molecule: [Cl][Mn][Cl] [MnCl2]
- use as divalent metal ion (in words) [6]: can be used
- use as divalent metal ion (in words) [2]: can be used
- Effect of metal ion on GK activity (in words) ([4]; listed as Mn++): inhibited; also recorded: strongly inhibits
- Relative Activity (%) with 1 mM Mg++ ([4]; reagent 1.0 mM): 14%
- Relative Activity (%) without Mg++ ([4]; reagent 1.0 mM): 6%

Molecule: O=C(O)c1cc[c]([Hg][Cl])cc1 [PCMB, p-chloromercuribenzoate]
- Inhibition of GK activity by PCMB (in words) ([4]; 7.5×10^-6 M of PCMB): completely inhibits
- Relative Activity (%) with 1 mM Mg++ ([4]; PCMB 5.0 × 10^-6 M): 13%
- Relative Activity (%) with 1 mM Mg++ ([4]; PCMB 7.5 × 10^-6 M): 0%

Molecule: O=c1ccn([C@@H]2O[C@H](COP(=O)(O)OP(=O)(O)OP(=O)(O)O)[C@@H](O)[C@H]2O)c(=O)[nH]1 [UTP]
- Relative activity (%) [3]: 18%

Molecule: O=C(CO)CO [dihydroxyacetone]
- Relative activity [5]: 74%
- Km [1]: 660 µM

Molecule: OCC(O)CO [glycerol]
- substrate specificity (in words) ([5]; glycerol versus dihydroxyacetone phosphate): higher specificity
- Relative activity [5]: 100%
- Km [1]: 48 µM

Molecule: dihydroxyacetone phosphate
- activity for dihydroxyacetone phosphate as compared with glycerol [2]: nearly twice

Reference: patent US4347323A, “Glycerol kinase from Streptomyces canus” (Toyo Jozo Kabushiki Kaisha, priority 1979, dated 1982)
